Source: US5399699A, “Indole iminooxy derivatives which inhibit leukotriene biosynthesis” (Abbott Laboratories, priority 1994, dated 1995)
pIC50: −log10 of the molar value.

Legend:
[1] = tested on: LTB4 biosynthesis in human polymorphonuclear leukocytes (PMNL); test: Inhibition of calcium ionophore (A23187)-induced LTB4 biosynthesis in human PMNL; assay type: cell-based; settings: 15 min preincubation at 37° C., A23187 8.3 μM, 10 min, LTB4 by HPLC
Description: Inhibition of leukotriene biosynthesis was evaluated in assays, involving calcium ionophore-induced LTB4 biosynthesis expressed by human polymorphonuclear leukocytes (PMNL) or human whole blood. Human PMNL were isolated from heparinized (20 USP units/mL) venous blood using Ficoll-Hypaque Mono-Poly Resolving Medium. Human PMNL suspensions (5×10^6 cells/250 μL) were preincubated with test compounds or vehicle for 15 min at 37° C. followed by calcium ionophore A23187 challenge (final concentration of 8.3 μM) and the reaction terminated after 10 min by adding two volumes of methanol containing prostaglandin B2 as an internal recovery standard. The methanol extracts were analyzed for LTB4 content by HPLC.

leukotriene biosynthesis = test: Inhibition of leukotriene biosynthesis in vivo, rat peritoneal anaphylaxis model, oral administration; settings: 1 h, by gavage one hour prior to antigen challenge
Description: Inhibition of the biosynthesis of leukotrienes in vivo after oral administration of compound was determined using a rat peritoneal anaphylaxis model in a similar manner as that described by Young and coworkers (Young, P. R.; Dyer, R. D.; Carter, G. W. Fed. Proc., Fed. Am. Sec. Exp. Biol. 1985, 44, 1185). In this model rats were injected intraperitoneally (ip) with rabbit antibody to bovine serum albumin (BSA) and three hours later injected ip with BSA to induce an antigen-antibody response. Rats were sacrificed 15 minutes after this challenge and the peritoneal fluids were collected and analyzed for leukotriene levels. Test compounds were administered by gavage one hour prior to the antigen challenge. Percent inhibition values were determined by comparing the treatment group to the mean of the control group.

SMILES: CC(C)(CON=CC(=O)O)Cc1c(SC(C)(C)C)c2cc(OCc3ccc4ccccc4n3)ccc2n1Cc1ccc(Cl)cc1 [Example 1]
- pIC50 [1]: 8.00
- ED50 (leukotriene biosynthesis): 0.9 mg/kg

SMILES: CC(=NOCC(C)(C)Cc1c(SC(C)(C)C)c2cc(OCc3ccc4ccccc4n3)ccc2n1Cc1ccc(Cl)cc1)C(=O)O [Example 2, 1-(4-chlorobenzyl)-3-(t-butylthio)-5-(2-quinolinemethoxy)indol-2-yl(2,2-dimethyl)prop-3-yl-iminooxy-2-propionic acid]
- pIC50 [1]: 8.00

SMILES: CC(=NOCC(C)(C)Cc1c(SC(C)(C)C)c2cc(OCc3cscn3)ccc2n1Cc1ccc(Cl)cc1)C(=O)O [Example 5, 1-(4-chlorobenzyl)-3-(t-butylthio)-5-(4-thiazolylmethoxy)indol-2-yl-(2,2-dimethyl)prop-3-yliminooxy-2-propionic acid]
- pIC50 [1]: 8.10

SMILES: CC(C)(CON=CC(=O)O)Cc1c(SC(C)(C)C)c2cc(OCc3ccc4ccccc4n3)ccc2n1Cc1ccc(F)cc1 [Example 6, 1-(4-fluorobenzyl)-3-(t-butylthio)-5-(2-quinolinylmethoxy)indol-2-yl-(2,2-dimethyl)prop-3-yliminooxyacetic acid]
- pIC50 [1]: 8.30
